{"source": "patent US20200239530A1", "about": "“COMPOUNDS AND METHODS OF MODULATING PROTEIN DEGRADATION” (Vividion Therapeutics, Inc., priority 2017, published 2020)", "test_in_all_cases": "Cysteine liganding, probe competition", "assay_type_in_all_cases": "binding", "key": {"UniProt Q8TEL6": {"molecular_target": "T1, UniProt Q8TEL6 (Homo sapiens, UniProt Q8TEL6)", "T1 construct": "200 μL of lysate containing 5 mg/ml proteome was treated with 2 μL of 100× compound stock; endogenous in cells", "T1 sequence (Q8TEL6 1-797)": "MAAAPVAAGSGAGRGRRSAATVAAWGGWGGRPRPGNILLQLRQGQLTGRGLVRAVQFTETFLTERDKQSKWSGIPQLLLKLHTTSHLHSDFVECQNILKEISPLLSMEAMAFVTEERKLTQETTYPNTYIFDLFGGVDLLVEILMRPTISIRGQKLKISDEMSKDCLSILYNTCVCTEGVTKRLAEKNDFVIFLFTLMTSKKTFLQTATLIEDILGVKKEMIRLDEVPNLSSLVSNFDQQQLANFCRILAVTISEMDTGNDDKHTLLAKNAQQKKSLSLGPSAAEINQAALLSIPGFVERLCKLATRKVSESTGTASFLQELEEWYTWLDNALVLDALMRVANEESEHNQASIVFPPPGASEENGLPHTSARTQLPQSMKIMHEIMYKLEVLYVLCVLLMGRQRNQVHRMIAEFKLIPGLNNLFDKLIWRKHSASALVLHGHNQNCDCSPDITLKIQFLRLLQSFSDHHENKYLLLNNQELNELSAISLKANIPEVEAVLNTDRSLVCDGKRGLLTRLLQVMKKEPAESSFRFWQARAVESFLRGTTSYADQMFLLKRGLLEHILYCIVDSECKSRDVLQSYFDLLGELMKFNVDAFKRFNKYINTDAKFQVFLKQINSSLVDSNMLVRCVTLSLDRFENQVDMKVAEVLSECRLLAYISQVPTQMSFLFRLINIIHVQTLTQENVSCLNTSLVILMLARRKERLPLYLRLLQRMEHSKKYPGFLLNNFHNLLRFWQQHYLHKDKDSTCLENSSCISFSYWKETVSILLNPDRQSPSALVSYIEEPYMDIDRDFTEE", "from_the_text": "(§1) The following 96-well sample prep protocol was used for sample preparation."}, "UniProt Q9H0F6": {"molecular_target": "T2, UniProt Q9H0F6 (Homo sapiens, UniProt Q9H0F6)", "T2 construct": "200 μL of lysate containing 5 mg/ml proteome was treated with 2 μL of 100× compound stock; endogenous in cells", "T2 sequence (Q9H0F6 whole entry, change not shown)": "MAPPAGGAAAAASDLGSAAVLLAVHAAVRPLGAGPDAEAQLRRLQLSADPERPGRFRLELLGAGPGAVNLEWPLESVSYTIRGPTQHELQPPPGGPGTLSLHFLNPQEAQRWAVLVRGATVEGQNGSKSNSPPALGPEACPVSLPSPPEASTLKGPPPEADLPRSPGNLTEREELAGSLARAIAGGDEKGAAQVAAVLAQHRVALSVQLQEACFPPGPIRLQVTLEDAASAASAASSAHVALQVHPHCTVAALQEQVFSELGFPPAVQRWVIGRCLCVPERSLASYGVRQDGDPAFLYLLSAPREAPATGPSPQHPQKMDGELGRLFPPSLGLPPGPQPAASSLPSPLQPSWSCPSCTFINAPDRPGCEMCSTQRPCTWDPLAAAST", "details": "read-out: percent_inhibition", "from_the_text": "as §1"}, "UniProt Q9UPQ4": {"molecular_target": "T3, UniProt Q9UPQ4 (Homo sapiens, UniProt Q9UPQ4)", "T3 construct": "200 μL of lysate containing 5 mg/ml proteome was treated with 2 μL of 100× compound stock; endogenous in cells", "T3 sequence (Q9UPQ4 1-493)": "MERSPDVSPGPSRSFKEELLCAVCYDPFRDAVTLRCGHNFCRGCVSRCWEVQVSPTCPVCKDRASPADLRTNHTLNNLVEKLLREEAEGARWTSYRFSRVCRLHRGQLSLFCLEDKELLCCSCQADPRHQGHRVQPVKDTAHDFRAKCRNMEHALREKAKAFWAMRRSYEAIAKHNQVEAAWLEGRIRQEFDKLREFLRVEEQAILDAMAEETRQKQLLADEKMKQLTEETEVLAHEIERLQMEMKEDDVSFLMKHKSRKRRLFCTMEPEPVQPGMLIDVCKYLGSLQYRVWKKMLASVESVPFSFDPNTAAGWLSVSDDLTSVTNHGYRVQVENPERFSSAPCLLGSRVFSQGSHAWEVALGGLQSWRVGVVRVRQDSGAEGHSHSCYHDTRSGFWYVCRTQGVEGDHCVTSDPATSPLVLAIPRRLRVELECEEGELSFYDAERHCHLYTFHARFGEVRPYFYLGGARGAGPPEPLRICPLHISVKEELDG", "from_the_text": "as §1"}, "UniProt O43791": {"molecular_target": "T4, UniProt O43791 (Homo sapiens, UniProt O43791)", "T4 construct": "200 μL of lysate containing 5 mg/ml proteome was treated with 2 μL of 100× compound stock; endogenous in cells", "T4 sequence (O43791 whole entry, change not shown)": "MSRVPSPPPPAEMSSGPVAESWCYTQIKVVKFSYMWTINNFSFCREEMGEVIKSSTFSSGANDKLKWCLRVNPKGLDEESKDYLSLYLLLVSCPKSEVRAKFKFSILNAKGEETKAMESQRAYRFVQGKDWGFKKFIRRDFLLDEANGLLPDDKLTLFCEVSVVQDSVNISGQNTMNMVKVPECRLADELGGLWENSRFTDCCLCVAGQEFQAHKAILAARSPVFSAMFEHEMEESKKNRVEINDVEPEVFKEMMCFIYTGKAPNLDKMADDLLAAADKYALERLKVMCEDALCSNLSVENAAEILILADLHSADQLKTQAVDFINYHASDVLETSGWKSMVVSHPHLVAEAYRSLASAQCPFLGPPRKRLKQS", "from_the_text": "as §1"}, "UniProt Q9H0A6": {"molecular_target": "T5, UniProt Q9H0A6 (Homo sapiens, UniProt Q9H0A6)", "T5 construct": "200 μL of lysate containing 5 mg/ml proteome was treated with 2 μL of 100× compound stock; endogenous in cells", "T5 sequence (Q9H0A6 whole entry, change not shown)": "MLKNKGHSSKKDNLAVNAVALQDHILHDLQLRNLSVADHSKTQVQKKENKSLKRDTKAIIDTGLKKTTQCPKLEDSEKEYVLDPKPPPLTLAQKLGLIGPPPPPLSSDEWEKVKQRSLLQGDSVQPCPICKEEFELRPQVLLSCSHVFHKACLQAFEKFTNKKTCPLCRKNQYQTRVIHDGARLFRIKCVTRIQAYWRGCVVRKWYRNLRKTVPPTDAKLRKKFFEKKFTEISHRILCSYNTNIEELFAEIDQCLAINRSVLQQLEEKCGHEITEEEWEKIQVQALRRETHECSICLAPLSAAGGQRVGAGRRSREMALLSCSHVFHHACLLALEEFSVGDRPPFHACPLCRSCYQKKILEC", "from_the_text": "as §1"}, "UniProt Q9BR09": {"molecular_target": "T6, UniProt Q9BR09 (Homo sapiens, UniProt Q9BR09)", "T6 construct": "Cells were resuspended in cold PBS on ice and sonicated with a probe sonicator to achieve lysis; endogenous in cells", "T6 sequence (Q9BR09 whole entry, change not shown)": "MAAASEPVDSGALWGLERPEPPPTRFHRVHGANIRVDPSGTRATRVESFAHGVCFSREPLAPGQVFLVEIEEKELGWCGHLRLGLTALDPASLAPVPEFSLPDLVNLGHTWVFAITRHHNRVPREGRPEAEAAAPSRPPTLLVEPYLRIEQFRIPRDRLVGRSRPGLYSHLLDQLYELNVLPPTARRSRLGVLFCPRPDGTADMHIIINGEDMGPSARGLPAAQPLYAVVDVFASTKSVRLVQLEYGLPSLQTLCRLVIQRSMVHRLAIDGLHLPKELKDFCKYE", "details": "read-out: percent inhibition", "from_the_text": "as §1"}, "UniProt Q96EX2": {"molecular_target": "T7, UniProt Q96EX2 (Homo sapiens, UniProt Q96EX2)", "T7 construct": "200 μL of lysate containing 5 mg/ml proteome was treated with 2 μL of 100× compound stock; endogenous in cells", "T7 sequence (Q96EX2 1-444)": "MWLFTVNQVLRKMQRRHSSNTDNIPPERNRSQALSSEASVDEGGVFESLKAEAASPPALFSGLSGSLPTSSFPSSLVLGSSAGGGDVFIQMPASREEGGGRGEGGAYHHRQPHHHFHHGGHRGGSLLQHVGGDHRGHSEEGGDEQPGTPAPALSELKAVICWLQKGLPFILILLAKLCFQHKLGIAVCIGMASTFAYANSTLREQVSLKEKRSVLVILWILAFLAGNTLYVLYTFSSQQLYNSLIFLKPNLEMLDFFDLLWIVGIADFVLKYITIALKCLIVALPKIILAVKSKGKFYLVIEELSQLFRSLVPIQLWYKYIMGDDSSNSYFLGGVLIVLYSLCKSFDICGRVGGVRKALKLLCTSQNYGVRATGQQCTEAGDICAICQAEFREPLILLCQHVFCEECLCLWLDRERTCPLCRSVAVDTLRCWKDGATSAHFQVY", "details": "for inhibition at 100 µM / inhibition at 500 µM: read-out: percent_inhibition", "from_the_text": "as §1"}, "UniProt Q6VVB1": {"molecular_target": "T8, UniProt Q6VVB1 (Homo sapiens, UniProt Q6VVB1)", "T8 construct": "Cells were resuspended in cold PBS on ice and sonicated with a probe sonicator to achieve lysis; endogenous in cells", "T8 sequence (Q6VVB1 whole entry, change not shown)": "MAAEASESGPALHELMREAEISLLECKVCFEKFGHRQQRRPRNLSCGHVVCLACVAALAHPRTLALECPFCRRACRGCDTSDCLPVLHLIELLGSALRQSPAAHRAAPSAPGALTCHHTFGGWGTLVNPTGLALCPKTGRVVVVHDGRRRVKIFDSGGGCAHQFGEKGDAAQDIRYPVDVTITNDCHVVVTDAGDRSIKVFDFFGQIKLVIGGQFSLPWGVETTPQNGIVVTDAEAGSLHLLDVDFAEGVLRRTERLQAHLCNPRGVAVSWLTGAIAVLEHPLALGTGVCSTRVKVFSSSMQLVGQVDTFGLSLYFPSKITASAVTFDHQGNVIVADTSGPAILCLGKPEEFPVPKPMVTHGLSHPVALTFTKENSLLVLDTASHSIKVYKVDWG", "from_the_text": "as §1"}, "UniProt Q496Y0": {"molecular_target": "T9, UniProt Q496Y0 (Homo sapiens, UniProt Q496Y0)", "T9 construct": "200 μL of lysate containing 5 mg/ml proteome was treated with 2 μL of 100× compound stock; endogenous in cells", "T9 sequence (Q496Y0 whole entry, change not shown)": "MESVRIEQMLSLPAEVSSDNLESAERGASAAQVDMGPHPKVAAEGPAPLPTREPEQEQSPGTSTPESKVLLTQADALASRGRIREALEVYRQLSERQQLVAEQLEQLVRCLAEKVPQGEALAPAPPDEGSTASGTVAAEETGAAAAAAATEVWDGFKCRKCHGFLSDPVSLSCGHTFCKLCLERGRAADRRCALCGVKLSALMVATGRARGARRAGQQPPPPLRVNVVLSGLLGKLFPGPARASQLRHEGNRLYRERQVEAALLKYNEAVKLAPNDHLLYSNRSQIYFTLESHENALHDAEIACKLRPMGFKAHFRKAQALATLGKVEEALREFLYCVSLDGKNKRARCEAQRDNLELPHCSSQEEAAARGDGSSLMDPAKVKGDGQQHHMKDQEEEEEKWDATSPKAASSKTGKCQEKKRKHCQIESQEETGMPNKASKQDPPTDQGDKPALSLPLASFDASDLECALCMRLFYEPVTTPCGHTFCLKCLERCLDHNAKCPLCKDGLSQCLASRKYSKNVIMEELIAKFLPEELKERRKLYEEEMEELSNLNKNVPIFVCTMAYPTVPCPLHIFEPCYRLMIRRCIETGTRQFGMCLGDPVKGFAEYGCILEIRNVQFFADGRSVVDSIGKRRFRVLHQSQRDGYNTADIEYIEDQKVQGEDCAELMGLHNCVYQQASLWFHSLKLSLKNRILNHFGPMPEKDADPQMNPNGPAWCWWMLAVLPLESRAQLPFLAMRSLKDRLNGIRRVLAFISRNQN", "from_the_text": "as §1"}, "UniProt Q8WV22": {"molecular_target": "T10, UniProt Q8WV22 (Homo sapiens, UniProt Q8WV22)", "T10 construct": "Cells were resuspended in cold PBS on ice and sonicated with a probe sonicator to achieve lysis; endogenous in cells", "T10 sequence (Q8WV22 1-266)": "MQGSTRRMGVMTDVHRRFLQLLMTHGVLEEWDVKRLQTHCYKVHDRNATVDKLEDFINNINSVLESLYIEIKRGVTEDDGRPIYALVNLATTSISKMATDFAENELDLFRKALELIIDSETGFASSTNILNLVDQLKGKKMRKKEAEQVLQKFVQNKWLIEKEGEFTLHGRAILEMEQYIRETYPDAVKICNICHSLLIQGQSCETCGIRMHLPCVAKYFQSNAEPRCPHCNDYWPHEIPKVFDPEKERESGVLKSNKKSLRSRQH", "from_the_text": "as §1"}, "UniProt O43164": {"molecular_target": "T11, UniProt O43164 (Homo sapiens, UniProt O43164)", "T11 construct": "200 μL of lysate containing 5 mg/ml proteome was treated with 2 μL of 100× compound stock; endogenous in cells", "T11 sequence (O43164 whole entry, change not shown)": "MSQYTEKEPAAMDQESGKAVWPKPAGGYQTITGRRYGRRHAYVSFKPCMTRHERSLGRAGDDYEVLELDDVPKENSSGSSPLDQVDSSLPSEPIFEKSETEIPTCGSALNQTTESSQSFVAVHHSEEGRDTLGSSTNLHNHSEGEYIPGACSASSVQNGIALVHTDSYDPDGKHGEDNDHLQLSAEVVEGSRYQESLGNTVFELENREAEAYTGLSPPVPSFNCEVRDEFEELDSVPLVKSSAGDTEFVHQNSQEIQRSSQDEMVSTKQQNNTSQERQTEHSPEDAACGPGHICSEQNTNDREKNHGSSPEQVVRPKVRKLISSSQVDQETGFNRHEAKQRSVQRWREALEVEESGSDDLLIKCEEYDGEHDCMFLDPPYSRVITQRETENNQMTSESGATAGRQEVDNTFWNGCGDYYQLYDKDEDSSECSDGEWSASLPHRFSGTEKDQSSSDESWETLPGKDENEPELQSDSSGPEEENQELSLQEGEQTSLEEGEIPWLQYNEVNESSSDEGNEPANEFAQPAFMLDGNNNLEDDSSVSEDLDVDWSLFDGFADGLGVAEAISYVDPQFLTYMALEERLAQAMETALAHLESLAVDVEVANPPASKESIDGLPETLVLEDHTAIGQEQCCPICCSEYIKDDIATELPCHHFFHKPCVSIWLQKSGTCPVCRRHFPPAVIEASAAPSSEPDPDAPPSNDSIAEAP", "from_the_text": "as §1"}, "[1]": {"details": "100 uM, read-out: KB02_100 uM_percent_inhibition"}, "[2]": {"details": "500 uM, read-out: percent_inhibition"}, "[3]": {"details": "500 uM, read-out: KB05_500 uM_percent_inhibition"}}, "note": "Where two headings read alike, the source gives them in different places.", "data": [{"compound": "COc1ccc2c(c1)CCCN2C(=O)CCl", "note": "[KB02]", "values": [{"measurement": "inhibition at 100 µM", "setting": "UniProt Q8TEL6; [1]", "result": 1, "unit": "%"}, {"measurement": "inhibition at 100 µM", "setting": "UniProt Q9H0F6", "result": 3, "unit": "%"}, {"measurement": "inhibition at 100 µM", "setting": "UniProt Q9UPQ4; [1]", "result": 10, "unit": "%"}, {"measurement": "inhibition at 500 µM", "setting": "UniProt Q9UPQ4; 500 uM, read-out: KB02_500 uM_percent_inhibition", "result": 27, "unit": "%"}, {"measurement": "inhibition at 100 µM", "setting": "UniProt O43791; read-out: percent_inhibition", "result": 49, "unit": "%"}, {"measurement": "inhibition at 100 µM", "setting": "UniProt Q9H0A6; 100 uM, read-out: percent_inhibition", "result": 44, "unit": "%"}, {"measurement": "inhibition at 500 µM", "setting": "UniProt Q9H0A6; [2]", "result": 42, "unit": "%"}, {"measurement": "inhibition at 500 µM", "setting": "UniProt Q9BR09", "result": 32, "unit": "%"}, {"measurement": "inhibition at 100 µM", "setting": "UniProt Q96EX2", "result": 44, "unit": "%"}, {"measurement": "inhibition at 500 µM", "setting": "UniProt Q96EX2; 500 uM", "result": 42, "unit": "%"}, {"measurement": "inhibition at 500 µM", "setting": "UniProt Q6VVB1; read-out: KB02_500 uM_percent_inhibition", "result": 9, "unit": "%"}]}, {"compound": "C=CC(=O)N(c1ccccc1)c1ccc(Br)cc1", "note": "[KB05]", "values": [{"measurement": "inhibition at 100 µM", "setting": "UniProt Q496Y0; 100 uM, read-out: percent inhibition", "result": 26, "unit": "%"}, {"measurement": "percent inhibition", "setting": "UniProt Q496Y0; 500 uM", "result": 52, "unit": "%"}, {"measurement": "inhibition at 500 µM", "setting": "UniProt Q496Y0; 500 uM, read-out: percent inhibition", "result": 47, "unit": "%"}, {"measurement": "KB05_500 uM_percent_inhibition", "setting": "UniProt Q8TEL6; 500 uM", "result": 61, "unit": "%"}, {"measurement": "inhibition at 500 µM", "setting": "UniProt Q8TEL6; [3]", "result": 77, "unit": "%"}, {"measurement": "inhibition at 100 µM", "setting": "UniProt Q8WV22; 100 uM, read-out: KB05_100 uM_percent_inhibition", "result": 13, "unit": "%"}, {"measurement": "KB05_500 uM_percent_inhibition", "setting": "UniProt Q8WV22; 500 uM", "result": 66, "unit": "%"}, {"measurement": "inhibition at 500 µM", "setting": "UniProt Q8WV22; [3]", "result": 64, "unit": "%"}, {"measurement": "inhibition at 100 µM", "setting": "UniProt O43164; read-out: KB05_100 uM_percent_inhibition", "result": 1, "unit": "%"}, {"measurement": "inhibition at 100 µM", "setting": "UniProt Q9H0F6", "result": 25, "unit": "%"}, {"measurement": "percent_inhibition", "setting": "UniProt Q9H0A6; 500 uM", "result": 10, "unit": "%"}, {"measurement": "inhibition at 500 µM", "setting": "UniProt Q9H0A6; [2]", "result": 16, "unit": "%"}, {"measurement": "inhibition at 500 µM", "setting": "UniProt Q9BR09", "result": 3, "unit": "%"}, {"measurement": "inhibition at 100 µM", "setting": "UniProt Q96EX2", "result": 17, "unit": "%"}, {"measurement": "percent_inhibition", "setting": "UniProt Q96EX2; 500 uM", "result": 29, "unit": "%"}, {"measurement": "inhibition at 500 µM", "setting": "UniProt Q96EX2; 500 uM", "result": 16, "unit": "%"}, {"measurement": "inhibition at 500 µM", "setting": "UniProt Q6VVB1; read-out: KB05_500 uM_percent_inhibition", "result": 15, "unit": "%"}]}, {"compound": "O=C(CCl)Nc1cc(C(F)(F)F)cc(C(F)(F)F)c1", "note": "[KBO3]", "values": [{"measurement": "percent inhibition", "setting": "UniProt Q496Y0; 500 uM", "result": 26, "unit": "%"}, {"measurement": "KB03_100 uM_percent_inhibition", "setting": "UniProt Q8WV22; 100 uM", "result": 2, "unit": "%"}, {"measurement": "KB03_100 uM_percent_inhibition", "setting": "UniProt O43164; 100 uM", "result": 22, "unit": "%"}, {"measurement": "KB03_500 uM_percent_inhibition", "setting": "UniProt Q9UPQ4; 500 uM", "result": 32, "unit": "%"}, {"measurement": "percent_inhibition", "setting": "UniProt O43791; 100 uM", "result": 57, "unit": "%"}]}]}
